Experimental findings from patent publication US4548750A, “Pyrimido[4,5-d][2]benzazepines useful as sedatives and anxiolytic agents” (Hoffmann-La Roche Inc., priority 1983, dated 1985) are described below.

In general, minimal effective dose refers to the smallest amount tested that counted as effective. Higher therefore signals a need for much substance. A word on the LD50: it is the dose expected to kill half of the subjects tested. Higher therefore signals a less toxic substance.

One series deals with mice. Put plainly: Footshock (blocking of footshock-induced fighting in pairs of mice). Conditions: Mus musculus; pairs of mice pretreated 1 hour prior to second shocking; 3 out of 3 pairs must be blocked from fighting; maximum dose 100 mg/kg. Type of series: in vivo. As for the experimental part: A pair of mice is confined under a one liter beaker placed on a grid which presents shock to the feet. At least 5 fighting episodes are elicited in a two-minute period. Pairs of mice are marked and pretreated 1 hour prior to a second shocking. Logarithmic dose intervals are utilized up to a maximum of 100 mg/kg. At the 100% blocking dose, 3 out of 3 pairs must be blocked from fighting.

Another series deals with male mice. Put plainly: Inclined Screen (paralyzing effects causing mice to slide off the screen). The series is classed as in vivo. As to conditions: Mus musculus; groups of 6 male mice; at least 4 hours observation; maximum dose 500 mg/kg; read-out: Inclined Screen (PD50). Here is the method: Groups of 6 male mice are given the test drug (maximum dose of 500 mg/kg) and then are left on the inclined screen at least 4 hours for observation of paralyzing effects severe enough to cause them to slide off the screen. If activity is observed, additional doses are taken until at least two are reached at which some, but not all of the animals slide off the screen. Doses at which mice fall off the screen due to toxicity or excitation are not included in the calculation of PD50.

The next series deals with Cats. In words: Unanesthetized Cat (minimum symptoms, usually ataxia). The series is classed as in vivo. Conditions: Felis catus, po, cats treated orally. As for the experimental part:
Cats are treated orally and observed for minimum symptoms--usually ataxia. One cat is used at a dose of 50 mg/kg. If activity is present, up to three cats/dose are used. Results are given as minimum effective dose.

The next series in a line: Toxicity (LD50). As to conditions: in vivo; PO; species not given.

For `Cc1nc(Cl)c2c(n1)CN=C(c1ccccc1)c1cc(Cl)ccc1-2` [1,9-Dichloro-3-methyl-7-phenyl-5H-pyrimido[4,5-d][2]benzazepine], in the series on mice, the ED100 is 10 mg/kg. Besides, the ED50 in the series with male mice amounted to 400 mg/kg. In the series with Cats, this molecule came in with a minimal effective dose of 10 mg/kg. In “Toxicity (LD50)”, this molecule came in with a 50% lethal dose (LD50) of over 1000 mg/kg.
